Laboratory results from patent publication US7495108B2, “Imidazoline derivatives having CB1-antagonistic activity” (Solvay Pharmaceuticals, B.V., priority 2004, dated 2009).

Assays:
[1] = biological target: human cannabinoid CB1 receptor (Homo sapiens, UniProt P21554); experiment: In vitro affinity for cannabinoid-CB1 receptors ([3H]CP-55,940 radioligand binding, CHO cell membranes); conditions: [3H]CP-55,940 as radioligand, read-out: In vitro affinity pKi value (converted)
Protocol: In vitro Affinity for Cannabinoid-CB1 Receptors
The affinity of the compounds of the invention for cannabinoid CB1 receptors can be determined using membrane preparations of Chinese hamster ovary (CHO) cells in which the human cannabinoid CB1 receptor is stably transfected in conjunction with [^3H]CP-55,940 as radioligand. After incubation of a freshly prepared cell membrane preparation with the [^3H]-ligand, with or without addition of compounds of the invention, separation of bound and free ligand is performed by filtration over glassfiber filters. Radioactivity on the filter is measured by liquid scintillation counting.

human CB1 receptor = human CB1 receptor (Homo sapiens, UniProt P21554); experiment: In vitro cannabinoid-CB1 receptor antagonism (WIN 55,212-2-induced [3H]-arachidonic acid release in CHO cells); assay type: cell-based; conditions: antagonism of WIN 55,212-2-induced [3H]-arachidonic acid release, read-out: In vitro antagonism pA2-value (arachidonic acid release) (converted)
Protocol: In vitro Cannabinoid-CB1 Receptor Antagonism
In vitro CB1 receptor antagonism can be assessed with the human CB1 receptor cloned in Chinese hamster ovary (CHO) cells. CHO cells are grown in a Dulbecco's Modified Eagle's medium (DMEM) culture medium, supplemented with 10% heat-inactivated fetal calf serum. Medium is aspirated and replaced by DMEM, without fetal calf serum, but containing [^3H]-arachidonic acid and incubated overnight in a cell culture stove (5% CO2/95% air; 37° C.; water-saturated atmosphere). During this period [^3H]-arachidonic acid is incorporated in membrane phospholipids. On the test day, medium is aspirated and cells are washed three times using 0.5 mL DMEM, containing 0.2% bovine serum albumin (BSA). Stimulation of the CB1 receptor by WIN 55,212-2 leads to activation of PLA2 followed by release of [^3H]-arachidonic acid into the medium. This WIN 55,212-2-induced release is concentration-dependently antagonized by CB1 receptor antagonists.

Chain of human cannabinoid CB1 receptor (P21554 whole entry): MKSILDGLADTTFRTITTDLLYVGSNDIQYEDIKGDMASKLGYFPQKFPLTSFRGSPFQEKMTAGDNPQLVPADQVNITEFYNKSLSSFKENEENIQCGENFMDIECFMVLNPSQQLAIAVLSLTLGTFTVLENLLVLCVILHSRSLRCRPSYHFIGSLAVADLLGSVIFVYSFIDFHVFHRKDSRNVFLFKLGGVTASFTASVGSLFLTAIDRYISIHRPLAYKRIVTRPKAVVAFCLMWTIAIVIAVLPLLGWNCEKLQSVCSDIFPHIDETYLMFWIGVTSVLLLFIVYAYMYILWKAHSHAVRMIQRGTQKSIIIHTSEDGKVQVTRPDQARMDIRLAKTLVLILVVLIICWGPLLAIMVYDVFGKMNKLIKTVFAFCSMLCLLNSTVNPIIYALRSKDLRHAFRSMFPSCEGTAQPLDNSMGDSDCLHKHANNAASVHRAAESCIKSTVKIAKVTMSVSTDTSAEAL
Chain of human CB1 receptor (P21554 whole entry): as above

Structure (SMILES) | melting point | Ki [1] | Kb (human CB1 receptor)
O=C(NC1CC2CCC1C2)C1CN(c2ccc(Cl)cc2)C(c2ccc(Cl)cc2Cl)=N1 (single isomer, unassigned) [Compound 1, 1-(4-chlorophenyl)-2-(2,4-dichlorophenyl)-N-(exo-2-bicyclo[2.2.1]heptyl)-4,5-dihydro-1H-imidazole-4-carboxamide] |  | 20 nM | 
O=C(NC1CC2CCC1C2)C1CN(c2ccc(Cl)cc2)C(c2ccc(Cl)cc2Cl)=N1 (single isomer, unassigned) [Compound 2, 1-(4-chlorophenyl)-2-(2,4-dichlorophenyl)-N-(exo-2-bicyclo[2.2.1]heptyl)-4,5-dihydro-1H-imidazole-4-carboxamide] |  | 100 nM | 
O=C(NC1CCCCC1)C1CN(c2ccc(Cl)cc2)C(c2ccc(Cl)cc2Cl)=N1 (centres unmarked) [Compound 4, 1-(4-Chlorophenyl)-2-(2,4-dichlorophenyl)-N-cyclohexyl4,5-dihydro-1H-imidazole-4-carboxamide] | 127 to 129 °C | 100 nM | 20 nM
CN(C)S(=O)(=O)/N=C(\N)C1CN(c2ccccc2)C(c2ccc(Cl)cc2)=N1 (centres unmarked) [Compound 7, 2-(4-Chlorophenyl)-N-(dimethylaminosulfonyl)-1-phenyl-4,5-dihydro-1H-imidazole-4-carboxamidine] | 136 to 139 °C |  | 

Second part, the compound after the results:

melting point | Ki [1] | Kb (human CB1 receptor) | Structure (SMILES)
172 to 175 °C |  |  | N/C(=N\S(=O)(=O)c1ccc(F)cc1)C1CN(c2ccc(Cl)cc2)C(c2ccc(Cl)cc2Cl)=N1 (centres unmarked)
113 to 116 °C |  |  | O=C(NN1CCCCC1)C1CN(c2ccc(Cl)cc2)C(c2ccc(Cl)cc2Cl)=N1 (centres unmarked) [Compound 3, 1-(4-chlorophenyl)-2-(2,4-dichlorophenyl)-N-(piperidin-1-yl)-4,5-dihydro-1H-imidazole-4-carboxamide]
165 to 166 °C |  |  | N/C(=N\S(=O)(=O)c1ccc(Cl)cc1)C1CN(c2ccc(Cl)cc2)C(c2ccc(Cl)cc2Cl)=N1 (centres unmarked) [Compound 5, 1-(4-chlorophenyl)-2-(2,4-dichlorophenyl)-N-[(4-chlorophenyl)sulfonyl]-4,5-dihydro-1H-imidazole-4-carboxamidine]
146 to 147 °C | 158 nM |  | CN(C)S(=O)(=O)/N=C(\N)C1CN(c2ccc(Cl)cc2)C(c2ccc(Cl)cc2Cl)=N1 (centres unmarked) [Compound 8, 1-(4-chlorophenyl)-2-(2,4-dichlorophenyl)-N-(dimethylaminosul-fonyl)-4,5-dihydro-1H-imidazole-4-carboxamidine]
